In patent US20040203117A1, “Method of expressing genetically modified protein carrying sugar chain having sialic acid added thereto in insect cells” (priority 2001, published 2004):

How the values were obtained:
[1] = system: N-acetylglucosaminidase (GlcNAcase) of TN5 cells; assay: GlcNAcase inhibition assay of TN5 cells (p-nitrophenol release from p-nitrophenyl β-D-acetylglucosamide); type: biochemical, insect (TN5 cells)
Description: The GlcNAcase inhibition assay of TN5 cells was performed as follows.
TN5 cells (2.0×10^7 cells) were washed once with PBS and rinsed with 1 ml of PBS containing 1% Triton-X 100. After centrifugation at 1,000×g for 5 minutes, the supernatant was used as an enzyme source. Fifty μl of the supernatant was mixed with 50 μl of 2-ADN to make a final 2-ADN concentration of 0 to 5 mM. To the solution mixture, 200 μl of a substrate solution (1 mg/ml p-nitrophenyl β-D-acetylglucosamide in 0.2 M citrate/phosphate buffer) was added. The resultant solution was incubated at 37° C. for one hour. The reaction was quenched by adding 1 M Na2CO3, the absorption of released p-nitrophenol was measured at 420 nm. […] Lanes 1 to 6 in the figures show the results obtained at addition amounts of 2-ADN, 0, 0.05, 0.5, 1, 2 and 5 mM, respectively.

[2] = system: α-2,6-linked sialylation of recombinant boIFN-τ in TN5 cells; assay: Lectin blot analysis (HRP-SNA) of sialic acid in recombinant boIFN-τ expressed by TN5 cells; type: cell-based, insect (TN5 cells); conditions: 2-ADN 0, 0.05, 0.5, 1, 2 and 5 mM; total amount of protein of each lane the same
Description: After TN5 cells were infected with a recombinant baculovirus, they were cultured for 3 days. The supernatant was subjected to Tricine SDS-PAGE performed under reducing conditions (600 ng protein per lane). After the separated protein was transferred on a PVDF membrane, and blocked with PBS containing 1% BSA at 4° C. overnight, the protein was washed with 200 mM Tris-buffered saline (TBS) containing 0.05% Tween 20, and then reacted with 5 μg/ml Sambucus nigra agglutinin labeled with horseradish peroxidase (HRP-SNA, manufactured by EY laboratory) at room temperature for one hour. The carbohydrate reacted was visualized by a Renaissance Western Blot Chemiluminescence Kit (Manufactured by NEN).
To investigate whether or not a sialylated recombinant glycoprotein is produced in insect cells where the GlcNAcase activity is inhibited, the terminal structure of N-glycan of recombinant boIFN-τ was determined by a lectin blot analysis using SNA, which is a lectin capable of recognizing α-2,6-linked sialic acid.

TN5 cells = conditions: 2-ADN added in a concentration of 5 mM
Description: TN5 cells were cultured in EX-CELL401 medium (manufactured by JRH Bioscience) containing 0 to 5 mM of 2-acetamide-1,2-dideoxynojirimycin (2-ADN) (Tront Research Chemicals Inc.) at 28° C. for 3 days. Subsequently, TN5 (TN5B1-4) cells were infected with the recombinant baculovirus prepared as described above at an moi of 1.0 and subjected to a further culturing in EX-CELL401 medium (manufactured by JRH Bioscience) at 28° C. for 3 days. Thereafter, the supernatant containing recombinant boIFN-τ (rboIFN-τ) was recovered.

[3] = system: N-glycosylation of recombinant boIFN-τ in TN5 cells; assay: SDS-PAGE and Western blot of recombinant boIFN-τ from TN5 cells cultured with tunicamycin; type: cell-based, insect (TN5 cells); conditions: 1 μg/ml tunicamycin, 3 days; only the 19.5 kD molecule observed
Description: The addition of a sugar chain to a recombinant protein, that is, N-glycosylation, was inhibited by culturing the TN5 cells infected with a recombinant baculovirus in a medium containing 1 μg/ml tunicamycin (manufactured by Sigma Chemical Co.) for 3 days.
Twenty μl of the culture supernatant of TN5 cells cultured for 3 days after infection with a recombinant baculovirus was subjected as a sample to Tricine SDS-PAGE performed under reducing conditions in accordance with a method described in Schagger, H. et al., Anal. Biochem. 166, 368-379 (1987). After electrophoresis, the separated protein was stained with Coomassie brilliant blue (CBB)G-250 or blotted on a polyvinylidene difluoride (PDFV) membrane (manufactured by Millipore Corporation). The protein-transferred membrane was blocked with PBS containing 5% skim milk at 4° C. overnight and allowed to react with a 0.2 μg/ml anti-boIFN-τ monoclonal antibody (manufactured by Katakura Industries) at room temperature for one hour, and further incubated with 2000-fold-diluted HPR-rabbit anti-mouse IgG at room temperature. The antibody bound to the protein was visualized by 3,3′-diaminobenzidine staining. The densities of bands obtained after the CBB staining and Western blotting were quantified by using a densitometer.

Compound | GlcNAcase activity, dependence on concentration ([1]; 0 to 5 mM 2-ADN) | GlcNAcase activity inhibited ([1]; 5 mM 2-ADN, TN5 cell lysate supernatant, 37° C., one hour) | SNA-reactive band intensity (sialic acid in recombinant boIFN-τ) [2] | proliferation of cells (TN5 cells) | N-glycosylation of recombinant boIFN-τ [3]
CC(=O)N[C@H]1CN[C@H](CO)[C@@H](O)[C@@H]1O [2-ADN, 2-acetoamide-1,2-dideoxynojirimycin] | inhibited by 2-ADN in a concentration-dependent manner | About 80% | increased by adding 2-ADN in a concentration dependent manner | not affected | 
tunicamycin |  |  |  |  | blocked
